Test results published in article PMC4309801, “Angiotensin Converting Enzyme Inhibitors (ACEI) and doxorubicin pharmacokinetics in women receiving adjuvant breast cancer treatment” (SpringerPlus, 2015).
Where two headings read alike, the source gives them in different places.

Legend:
[1] = female, human, in vivo
Experimental: (§1) Doxorubicin (60 mg/m^2) was administered as an IV infusion over 5–10 minutes followed by an infusion of cyclophosphamide 600 mg/m^2 over 30–60 minutes every two weeks for a total of four cycles (cumulative doxorubicin 240 mg/m^2). All subjects received aprepitant, dexamethasone and palonsetron prior to each infusion of doxorubicin. All subjects received pegfilgrastim subcutaneously 24–72 hours after doxorubicin and cyclophosphamide.
(§2) This was a randomized, cross-over, single-blinded drug-drug interaction study. All patients received one cycle of AC chemotherapy with enalapril and another cycle of AC with placebo (without enalapril). The two study cycles were consecutive. Patients were randomized to the enalapril intervention or placebo in cycle 1 with cross-over in the subsequent cycle. They began 5 mg of enalapril daily on day −6, and then increased to 10 mg daily on day −2, prior to doxorubicin administration on day 1.
(§3) Blood samples for pharmacokinetics (doxorubicin and doxorubicinol) were obtained in each subject twice (one cycle with enalapril and one with placebo). Samples were drawn at baseline (immediately prior to start of doxorubicin) and then at 0.5, 1, 2, 4, 24 and 48 hours after the end of infusion. Five milliliters of blood was collected at each sampling time and placed in an EDTA tube for doxorubicin and doxorubicinol analysis. Each sample of whole blood was immediately inverted 10 times, placed on wet ice, centrifuged at 3400 rpm for 10 minutes at 4 degrees C, plasma separated and frozen to −80 degrees C within 15 minutes of collection. Samples remained frozen at −80 degrees C until time of analysis. Samples were batched at the time of analysis.
(§4) Doxorubicin and doxorubicinol plasma concentration-time data were analyzed using noncompartmental methods (WinNonLin Professional 6.3). Area-under-the-curve (AUC) (0-∞) was estimated by the log/linear trapezoidal method as AUC (0-t*) + C(t*)/Ke where C(t*) was the last observed concentration and Ke is the terminal first order elimination rate constant. Ke was calculated as the slope of the linear portion of the log of plasma-concentration vs time curve using linear regression analysis. Cmax was at the highest observed concentration.
(§5) The chromatographic separation was performed with a Waters UPLC BEH C18, 2.1 × 50 mm, reversed phase column with a 1.7-micron particle size (Waters, Milford, MA). The mobile phase used for gradient elution consisted of (A) 5 mM ammonium acetate in water, pH 3.5 (B) methanol. […] The column temperature was maintained at 35°C. […] The collision energy was 14 eV, 12 eV and 25 eV, respectively. […] Cartridges were conditioned with 1 mL methanol followed by 1 mL DI water (18 Mohm.cm, type 1). The cartridges were loaded with the samples and centrifuged at 83 × g for 5 minutes and then washed with 1 mL distilled ionized water, centrifuged and transferred to a vacuum manifold for 5 minutes, and eluted with 1 mL methanol. The eluent was evaporated to dryness using a nitrogen evaporator (Zymark Turbo Vap LV, Hopkinton, MA) set at 37°C, and reconstituted in 100 μL of mobile phase (A:B, 45:55). Doxorubicin and doxorubicinol were obtained from Toronto Research Chemicals (Toronto, Ontario, CAN). Daunorubicin was obtained from Sigma-Aldrich (St. Louis, MO). The assays are linear in the range of 1 – 1,000 ng/mL. […] The lower limit of quantification for both analytes is 1 ng/mL.
(§6) The confidence interval is a measure of the precision of the exposure ratio estimate.

[2] = cited from earlier work; for Incidence of symptomatic heart failure: ref Singal and Iliskovic [1998], Yeh et al. [2004], Muggia and Speyer [1999]; for Incidence of asymptomatic declines in ejection fraction: up to, ref Lenihan and Cardinale [2012]
[3] = clinical; details: female, human, in vivo
Experimental: as §1, §2, §3, §4, §5, §6

[4] = Doxorubicin and doxorubicinol plasma pharmacokinetics with and without enalapril (randomized cross-over drug-drug interaction study); details: for AUC(0-∞) geometric mean ratio (90% CI) / Cmax geometric mean ratio (90% CI): with versus without enalapril; for Cmax: geometric mean ± standard error, 17 women
Experimental: as §1, §2, §3, §4, §5, §6

[5] = Safety / adverse events in the enalapril-doxorubicin interaction study; assay type: in vivo, women with breast cancer; details: enalapril 5 then 10 mg daily with doxorubicin and cyclophosphamide
From the text: The two study cycles were consecutive. […] There were no serious or grade 3 or 4 adverse events. The most commonly reported drug-related adverse event was dizziness with 33% experiencing grade 1 dizziness. No clinical cardiac events occurred.

[6] = set-up: method as in Cardinale et al. [2006]; details: 12 months after therapy; enalapril 20 mg daily; patients with troponin elevation; placebo 48.3%, p < 0.001; ref Cardinale et al. [2006]; cited from earlier work

COc1cccc2c1C(=O)c1c(O)c3c(c(O)c1C2=O)C[C@@](O)(C(=O)CO)C[C@@H]3O[C@H]1C[C@H](N)[C@H](O)[C@H](C)O1 [Doxorubicin]
AUC0-∞ [1]: 1167.73 (45.26) hr*ng/ml
Incidence of symptomatic heart failure ([2]; cumulative doses of 400–500 mg/m^2): 3-4%
Incidence of symptomatic heart failure ([2]; cumulative doses ≥ 600 mg/m^2): more than 30%
Incidence of asymptomatic declines in ejection fraction ([2]; higher doses): 30-35%
Incidence of asymptomatic declines in ejection fraction ([2]; moderate doses (240–400 mg/m^2)): 20-25%
AUC(0-inf) ([3]; AUC0-∞): 1190 ng·h/mL
AUC(0-inf) ([3]; iv, 60 mg/m2, AUC(0-∞)): 1640 ng·h/mL
90% CI for Cmax geometric mean ratio ([4]; reanalysis removing the outlier Cmax (subject with body mass index 53 kg/m^2)): 0.94-1.21
AUC(0-∞) geometric mean ratio (90% CI) [4]: 1.02(0.96-1.08)
Cmax geometric mean ratio (90% CI) [4]: 1.19(0.94-1.51)

COc1cccc2c1C(=O)c1c(O)c3c(c(O)c1C2=O)C[C@@](O)([C@@H](O)CO)C[C@@H]3O[C@H]1C[C@H](N)[C@H](O)[C@H](C)O1 [Doxorubicinol, doxorubicinol]
AUC0-∞ ([4]; with enalapril 10 mg daily, doxorubicin 60 mg/m^2 IV, plasma, Table 3 geometric mean ± standard error, text mean (standard error)): 1040 ± 80.6 ng·h/mL
Cmax ([4]; with enalapril 10 mg daily, doxorubicin 60 mg/m^2 IV, plasma): 27.81 ± 3.59 ng/mL
AUC0-∞ ([4]; with enalapril exposure, abstract, Mean (SD)): 1040 (80.6) hr*ng/ml
AUC(0-∞) geometric mean ratio (90% CI) [4]: 0.96(0.88-1.05)
Cmax geometric mean ratio (90% CI) [4]: 0.99(0.91-1.08)
AUC0-∞ ([4]; without enalapril (placebo cycle), doxorubicin 60 mg/m^2 IV, plasma, Table 3 geometric mean ± standard error, text mean (standard error)): 1056.32 ± 92.03 ng·h/mL
AUC0-∞ ([4]; without enalapril (placebo cycle), doxorubicin 60 mg/m^2 IV, plasma, Table 3 geometric mean ± standard error, text mean (standard error), listed as doxorubicinol): 1056.3 (92.0) ng-hr/mL
Cmax ([4]; without enalapril (placebo cycle), doxorubicin 60 mg/m^2 IV, plasma): 29.66 ± 4.68 ng/mL
AUC0-∞ ([4]; without enalapril, abstract, Mean (SD)): 1056.32 (92.03) hr*ng/ml

CCOC(=O)[C@H](CCc1ccccc1)N[C@@H](C)C(=O)N1CCC[C@H]1C(=O)O [Enalapril, enalapril]
Subjects with grade 1 dizziness [5]: 33%
Left ventricular ejection fraction [6]: 62.8%
